Laboratory results published in patent US20260231913A1, “CANCER MODEL ANIMAL AND METHOD FOR PRODUCING SAME” (ORBIO Corporation, priority 2023, published 2026).
Entries after “also recorded” stand apart in the source; their conditions may differ.

System: insulinoma cells MIN 6 cultured with L-glucose
Assay: Screening of substances that have anticancer effect in mice with intraperitoneally transplanted, L-glucose-cultured insulinoma cells MIN6
Assay type: in vivo, mouse
Protocol: Not only human cancer cells A549 but also mouse insulinoma cells MIN6 can be successfully cultured with the L-glucose medium. Mouse insulinoma cells MIN6 were cultured with the D-glucose medium. At a stage where the cells proliferated sufficiently, the medium was changed to the L-glucose medium. Subsequently, the medium change was performed frequently over 2 to 3 days. After almost all dead cells were confirmed to be removed, half the amount of the medium was changed every other day. The MIN6 cells were passaged once or twice using the L-glucose medium. After the culture for 8 to 11 days, the MIN 6 cells were trypsinized to form a cell suspension, which was transplanted at 5×10^6 cells (100 μL)/mouse subcutaneously into the right thigh of mice or at 1.0×10^5 cells (20 μL)/mouse into the abdominal cavity of mice without using Matrigel. As a control, MIN6 cells cultured with the normal D-glucose medium were also transplanted into mice. Because of rapid growth in the D-glucose medium, MIN6 cells were cultured with the D-glucose medium for 6 to 7 days and then transplanted at the same density as that of L-glucose-cultured cells subcutaneously into the right thigh of mice.
A method of screening substances that have anticancer effect was examined using, as a test substance, 2-deoxy-2-(2-oxo-2H-chromen-7-yl) amino-L-glucose (hereinafter referred to as “CLG”) (Japanese Patent No. 6566348), which is a molecule having a 7-OH-cuoumarin moiety bonded to L-glucose via a nitrogen atom.
On day 0, insulinoma cells MIN 6 cultured with L-glucose were intraperitoneally transplanted into 32 mice (four groups each including 8 mice). On day 1, the following groups were prepared: • 8 mice that were intraperitoneally administered every day until day 4 (over 4 minimum days) with a saline solution of CLG at a concentration of 53 mg/kg expected to be safe (CLG administration group); • 8 mice that were intraperitoneally administered only with a CLG-free saline every day until day 7 (over 7 days) (saline administration group); and • 8 mice that were intraperitoneally administered every day until day 7 (over 7 days) with 5-FU (which is used as a standard treatment for pancreatic cancer in Japan and the Europe and also used for treatment of neuroendocrine tumors such as insulinoma) at a high concentration of 25 mg/kg acceptable for nude mice (5-FU administration group).
All mice were euthanized at month 5 and subjected to pathological autopsy.

Molecule	share of mice with normal blood sugar levels and no tumor (8 mice, 53 mg/kg intraperitoneally, day 1 to day 4, month 5)	overall anticancer effect in vivo (administered only for 4 days)	mice that maintained normal blood sugar levels until the final euthanasia, with no tumor on dissection (of the 8 mice, 53 mg/kg intraperitoneally every day, day 1 to day 4, euthanasia at month 5)	mice with a malignant tumor classifiable as neuroendocrine carcinoma (NEC) in the abdominal cavity (of the 8 mice, pathological examination of whole-body sections)	onset of reduction in blood sugar level compared with the saline administration group (remaining 4 of the 8 mice)	necrosis of the intraperitoneal tumor (the one mouse with a malignant tumor)	pathological finding in individual mice (25 mg/kg intraperitoneally every day, day 1 to day 7, 8 mice)	mice likely to have worsened conditions, dissected on day 10 and each found to have a tumor (25 mg/kg intraperitoneally every day, day 1 to day 7, of 8 mice, day 10)
2-deoxy-2-(2-oxo-2H-chromen-7-yl) amino-L-glucose [CLG]	50%	significant effect in vivo	4 mice	one	one week later	at least 90%	–	–
O=c1[nH]cc(F)c(=O)[nH]1 [5-FU, reference compound]	–	–	–	–	–	–	large, highly-atypical, significant liver metastasis with high malignancy; also recorded: invasive cancer in the smooth muscle around the transverse colon	3 mice
